According to PMC2861344 (Neuropharmacology, 2010):
Blank lines part the entries; values can stand above or below the compound they belong to.

What was measured:
[1] = molecular target: T1, NR1aNR2B NMDA receptor (NR2B subunit) (Rattus norvegicus, UniProt P35439+Q00960); assay: whole-cell patch clamp, agonist concentration-response; type: cell-based
[2] = molecular target: T2, NR1aNR2A NMDA receptor (NR2A subunit) (Rattus norvegicus, UniProt P35439+Q00959); assay: as above; type: cell-based
[3] = molecular target: T2, NR1aNR2A NMDA receptor (NR2A subunit); assay: whole-cell patch clamp, inhibition of EC30 NMDA current; type: cell-based; settings: read-out: % inhibition at 100 μM
[4] = molecular target: T1, NR1aNR2B NMDA receptor (NR2B subunit); assay: as above; type: cell-based; settings: read-out: % inhibition at 100 μM
[5] = tested on: NMDA receptor (native, hippocampal neurons); type: cell-based, Mus musculus

T1 sequence (Q00960 27-1482, other chains not shown): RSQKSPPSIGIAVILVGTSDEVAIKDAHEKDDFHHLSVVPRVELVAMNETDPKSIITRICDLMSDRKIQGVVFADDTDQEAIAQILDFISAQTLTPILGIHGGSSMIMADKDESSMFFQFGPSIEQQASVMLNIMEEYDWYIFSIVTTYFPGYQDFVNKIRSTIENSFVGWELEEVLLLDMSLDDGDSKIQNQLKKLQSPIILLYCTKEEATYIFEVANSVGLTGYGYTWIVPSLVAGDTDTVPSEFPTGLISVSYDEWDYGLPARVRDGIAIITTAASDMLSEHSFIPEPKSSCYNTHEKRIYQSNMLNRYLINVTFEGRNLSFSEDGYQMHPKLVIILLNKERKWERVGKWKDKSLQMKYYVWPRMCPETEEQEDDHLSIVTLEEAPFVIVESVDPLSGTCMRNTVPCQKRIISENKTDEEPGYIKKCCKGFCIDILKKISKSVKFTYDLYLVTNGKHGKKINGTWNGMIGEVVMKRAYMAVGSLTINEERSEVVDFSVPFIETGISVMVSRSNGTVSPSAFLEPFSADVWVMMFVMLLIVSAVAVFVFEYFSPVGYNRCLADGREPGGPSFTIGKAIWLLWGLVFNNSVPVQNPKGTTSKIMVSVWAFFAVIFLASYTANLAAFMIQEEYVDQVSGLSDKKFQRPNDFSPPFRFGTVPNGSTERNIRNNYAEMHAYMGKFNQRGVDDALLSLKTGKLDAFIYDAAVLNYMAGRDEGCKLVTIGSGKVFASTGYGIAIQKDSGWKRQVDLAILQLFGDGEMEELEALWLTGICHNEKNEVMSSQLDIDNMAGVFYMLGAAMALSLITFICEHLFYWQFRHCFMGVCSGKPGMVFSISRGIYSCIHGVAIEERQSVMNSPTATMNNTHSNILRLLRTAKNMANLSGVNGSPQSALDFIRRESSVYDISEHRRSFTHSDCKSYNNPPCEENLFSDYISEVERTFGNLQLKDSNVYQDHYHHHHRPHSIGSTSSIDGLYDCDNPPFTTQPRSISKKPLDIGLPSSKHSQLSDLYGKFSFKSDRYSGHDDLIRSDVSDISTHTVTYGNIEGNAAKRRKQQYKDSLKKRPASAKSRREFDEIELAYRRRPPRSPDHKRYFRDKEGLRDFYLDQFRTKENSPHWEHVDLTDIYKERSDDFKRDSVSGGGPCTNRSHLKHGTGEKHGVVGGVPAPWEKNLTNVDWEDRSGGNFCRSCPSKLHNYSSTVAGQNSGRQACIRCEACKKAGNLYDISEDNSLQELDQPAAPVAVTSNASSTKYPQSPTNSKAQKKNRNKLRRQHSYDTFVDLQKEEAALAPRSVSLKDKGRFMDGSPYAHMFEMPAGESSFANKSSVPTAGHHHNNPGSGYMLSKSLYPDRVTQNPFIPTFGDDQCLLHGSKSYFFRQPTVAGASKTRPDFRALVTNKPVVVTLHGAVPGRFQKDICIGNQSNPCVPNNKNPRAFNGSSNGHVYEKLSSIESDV
T2 sequence (Q00959 23-1464, other chains not shown): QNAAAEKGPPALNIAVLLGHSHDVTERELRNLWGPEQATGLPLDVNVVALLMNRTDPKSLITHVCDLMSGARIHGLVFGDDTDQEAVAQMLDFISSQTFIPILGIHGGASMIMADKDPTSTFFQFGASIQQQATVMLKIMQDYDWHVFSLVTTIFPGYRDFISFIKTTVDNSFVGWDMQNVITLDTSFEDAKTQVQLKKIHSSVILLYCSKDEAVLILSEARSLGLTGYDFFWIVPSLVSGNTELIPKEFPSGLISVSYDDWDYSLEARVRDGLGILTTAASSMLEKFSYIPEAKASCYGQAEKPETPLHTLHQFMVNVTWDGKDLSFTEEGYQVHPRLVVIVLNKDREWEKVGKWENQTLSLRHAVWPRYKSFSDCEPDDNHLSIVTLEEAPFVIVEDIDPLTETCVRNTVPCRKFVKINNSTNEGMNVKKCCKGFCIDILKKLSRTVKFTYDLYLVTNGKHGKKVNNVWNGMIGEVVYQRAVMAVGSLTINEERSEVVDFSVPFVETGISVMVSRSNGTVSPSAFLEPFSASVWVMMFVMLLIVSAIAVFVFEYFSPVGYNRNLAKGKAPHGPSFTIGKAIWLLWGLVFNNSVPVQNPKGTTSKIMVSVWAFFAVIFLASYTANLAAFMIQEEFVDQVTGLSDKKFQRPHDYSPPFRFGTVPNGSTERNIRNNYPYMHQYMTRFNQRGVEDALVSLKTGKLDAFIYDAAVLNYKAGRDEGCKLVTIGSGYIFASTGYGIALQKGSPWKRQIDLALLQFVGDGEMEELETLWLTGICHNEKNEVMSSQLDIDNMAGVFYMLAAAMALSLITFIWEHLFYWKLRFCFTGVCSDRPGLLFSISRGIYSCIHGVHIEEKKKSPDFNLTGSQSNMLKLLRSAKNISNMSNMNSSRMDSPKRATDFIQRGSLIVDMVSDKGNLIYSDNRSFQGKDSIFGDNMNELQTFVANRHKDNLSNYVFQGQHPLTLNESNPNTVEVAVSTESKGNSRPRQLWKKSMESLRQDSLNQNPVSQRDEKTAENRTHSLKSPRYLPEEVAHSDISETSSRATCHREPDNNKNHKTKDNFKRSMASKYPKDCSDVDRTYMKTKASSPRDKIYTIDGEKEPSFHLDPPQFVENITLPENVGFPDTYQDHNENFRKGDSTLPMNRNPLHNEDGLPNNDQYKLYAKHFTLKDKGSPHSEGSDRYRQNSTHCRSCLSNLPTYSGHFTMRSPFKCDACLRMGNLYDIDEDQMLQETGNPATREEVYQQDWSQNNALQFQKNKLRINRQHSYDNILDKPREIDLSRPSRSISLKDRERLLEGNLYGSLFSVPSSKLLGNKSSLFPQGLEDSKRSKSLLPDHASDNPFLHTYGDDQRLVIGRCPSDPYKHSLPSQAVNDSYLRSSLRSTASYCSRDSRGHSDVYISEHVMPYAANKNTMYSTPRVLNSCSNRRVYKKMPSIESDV

SMILES: CN[C@H](CC(=O)O)C(=O)O [NMDA]
EC50 [1]: 14 ± 1.3 µM
EC50 [2]: 44 ± 5.6 µM

inhibition at 100 µM [3]: 20 ± 1.4%
inhibition at 100 µM [4]: 26 ± 2%
SMILES: O=c1c(-c2ccc(O)cc2)coc2cc(O)cc(O)c12 [genistein]

SMILES: O=c1c(-c2ccc(O)cc2)coc2cc(O)ccc12 [daidzein, 4′,7-dihydroxyisoflavone]
% of control current at 100 μM [5]: 68 ± 1.6
